Like-named read-outs stand apart in the source and are kept apart here.

The test system of the test is Rhizoctonia solani. The experiment in a line: Microtiter plate (MTP) fungal growth inhibition assay, OD at 590 nm after 5 days; interaction by Wadley approach. Particulars: for EC50: Rhizoctonia solani. The class given is cell-based. The method, then:
In the […] method, synergistic activity is determined from dose response curves. With this method, the efficacy of the active ingredient (“a.i.”) is determined by comparing the degree of fungal attack on treated plants with that on untreated, similarly inoculated and incubated check plants. Each a.i. is generally tested at multiple. (e.g., 6) 25 concentrations, and dose response curves are generated. The dose response curves are used to establish the EC50 (i.e., the effective concentration of a.i. providing 50% disease control) of the individual compounds as well as of the combinations (EC50Observed) The experimentally found values of the mixture at a given weight ratio are compared with the values that would have been found were only a complementary efficacy of the components was present as follows: 5 [formula] • A and B=the single products tested • a and b=the ratio of each product in the mixture • ECA and ECB=observed effective concentration of the single products A and B at different control levels (50 or 90%) 10 The ratio EC50 (A+B)Theo/EC50(A+B)observed expresses the factor of interaction level (R) which may be interpreted in accordance with the following Table: [table] The compound of Formula I, […] and Pyridachlometyl were tested straight or in mixture on the Rhizoctonia solani pathogen. the active ingredients straight or in mixture were diluted in a suitable solvent to a set of concentrations. Two fungicide ratios were tested for each combination between the compound of Formula I and Chloroinconazide or Pyridachlometyl. One hundred microliters of sterile distilled water with or without fungicide were added to 100 μl of pathogen suspension into each well in a microtiter plate (MTP). Each bioassay was carried out with the following 8 treatment groups corresponding to 8 concentrations of the fungicide mixture. In the MTP assay, 3 replicates (wells) were carried out for each concentration of fungicide mixture. The MTPs were incubated in the dark at 19° C. for 5 days under saturated humidity in order to avoid evaporation. Then, the fungal growth in each well was estimated by measuring the Optical Density (OD) at 590 nm with a BMG plate reader (FLUOstar Omega, BMG Labtech). The OD values at 5 days were automatically corrected by comparison with those measured at day zero (inoculation day). The generated data were transferred to the MARS Data Analysis software (BMG Labtech) which allows to calculate percentage of growth inhibition induced by each concentration of fungicide tested. Finally, the EC50 of each product and mixture was determined. • (i) No bacterial nor fungal contamination at any stage of the assay must be observed. • (ii) A normal and constant mycelium growth must be observed in the control wells (without fungicide). • (iii) At the end of the evaluation the final minimum OD must reach at least a value of 0.25 Absorbance's Unit (AU).

The mark [1] stands for this setting: MTP, 5 days at 19° C., OD 590 nm.
[2] abbreviates: Table 9, active ingredient straight.

Broadly, the EC50 is the concentration that produces a half-maximal response. Turning to `CC1N[C@H](C(=O)N/N=C/c2ccc(Cl)cc2)Cc2c1[nH]c1ccccc21` (stereo partly drawn) [Chloroinconazide], the “percentage of growth inhibition” value amounted to 14.4% (Dose 0.110); 2.0% (Dose 0.329); 24.1% (Dose 0.988); 9.1% (Dose 2.96); 19.5% (Dose 8.89); 99.3% (Dose 26.7). In addition, the “percentage of growth inhibition” value (Dose 80) came out at 100.1%. Besides, the EC50 under setting [1] came out at 15.399 µg/mL. Moreover, the EC50 observed under setting [2] turned out to be 15.3990 µg/mL.

Turning to `Cc1ccc(S(=O)(=O)n2cc(F)c(=N)n(C)c2=O)cc1` [Compound (I), 5-fluoro-4-imino-3-methyl-1-tosyl-3,4-dihydropyrimidin-2(1H)-one], the half-maximal effective concentration (EC50) was greater than 320 µg/mL (120 h, MTP, 5 days at 19° C., OD 590 nm, read-out: EC50) and no less than 320 µg/mL (Table 9, active ingredient straight, read-out: EC50 observed). For the same compound, the “percentage of growth inhibition” value is, setting by setting: (Dose 0.020) 15.8%; (Dose 0.102) 23.9%; (Dose 0.512) 22.5%; (Dose 2.56) 0.7%; (Dose 12.8) 13.5%; (Dose 64) 27.7%. The “percentage of growth inhibition” value (Dose 320) is reported as 40.1%.

Turning to `Cc1nnc(Cl)c(-c2c(F)cccc2F)c1-c1ccccc1` [Pyridachlometyl], the “percentage of growth inhibition” value was −1.1% (Dose 0.00781); 2.6% (Dose 0.01563); 3.7% (Dose 0.03125); 12.7% (Dose 0.06250); 68.7% (Dose 0.12500); 76.0% (Dose 0.2500). Moreover, the “percentage of growth inhibition” value (Dose 0.500) worked out at 77.2%. Moreover, the EC50 under setting [1] turned out to be 0.111 µg/mL. The EC50 observed under setting [2] turned out to be 0.1115 µg/mL.

The record behind these values is US20260271929A1, “FUNGICIDAL COMBINATIONS, MIXTURES AND COMPOSITIONS AND USES THEREOF” (ADAMA MAKHTESHIM LTD., priority 2023, published 2026).
